Test results as given in US7538103B2, “Compounds for the treatment of hepatitis C” (Bristol-Myers Squibb Company, priority 2007, dated 2009).
Like-named read-outs stand apart in the source and are kept apart here.

Experiments:
HCV replicon cells = assay: HCV replicon FRET assay; type: cell-based; details: Hepatitis C virus
From the text: FRET Assay Preparation. To perform the HCV FRET screening assay, 96-well cell culture plates were used. The FRET peptide (Anaspec, Inc.) (Taliani et al., Anal. Biochem. 1996, 240, 60-67) contains a fluorescence donor, EDANS, near one end of the peptide and an acceptor, DABCYL, near the other end. The fluorescence of the peptide is quenched by […] resonance energy transfer (RET) between the donor and the acceptor, but as the NS3 protease cleaves the peptide the products are released from RET quenching and the fluorescence of the donor becomes apparent. The assay reagent was made as follows: 5X cell Luciferase cell culture lysis reagent from Promega (#E153A) diluted to 1× with dH2O, NaCl added to 150 mM final, the FRET peptide diluted to 20 μM final from a 2 mM stock.
To prepare plates, HCV replicon cells, with or without a Renilla luciferase reporter gene, were trypsinized and placed into each well of a 96-well plate with titrated test compounds added in columns 3 through 12; columns 1 and 2 contained a control compound (HCV protease inhibitor), and the bottom row contained cells without compound. The plates were then placed in a CO2 incubator at 37° C.
Assays. Subsequent to addition of the test compounds described above (FRET Assay Preparation), at various times the plate was removed and Alamar blue solution (Trek Diagnostics, #00-100) was added per well as a measure of cellular toxicity. After reading in a Cytoflour 4000 instrument (PE Biosystems), plates were rinsed with PBS and then used for FRET assay by the addition of 30 ul of the FRET peptide assay reagent described above (FRET Assay Preparation) per well. The plate was then placed into the Cytoflour 4000 instrument which had been set to 340 excite/490 emission, automatic mode for 20 cycles and the plate read in a kinetic mode. Typically, the signal to noise using an endpoint analysis after the reads was at least three-fold. Alternatively, after Alamar blue reading, plates were rinsed with PBS, 50 ul of DMEM (high glucose) without phenol red was added and plates were then used for luciferase assay using the Promega Dual-Glo Luciferase Assay System.
Compound analysis was determined by quantification of the relative HCV replicon inhibition and the relative cytotoxicity values. To calculate cytoxicity values, the average Alamar Blue fluorescence signals from the control wells were set as 100% non-toxic. The individual signals in each of the compound test wells were then divided by the average control signal and multiplied by 100% to determine […]. To calculate the HCV replicon inhibition values, an average background value was obtained from the two wells containing the highest amount of HCV protease inhibitor at the end of the assay period. These numbers were similar to those obtained from naïve Huh-7 cells.
The background numbers were then subtracted from the average signal obtained from the control wells and this number was used as 100% activity. The individual signals in each of the compound test wells were then divided by the averaged control values after background subtraction and multiplied by 100% to determine percent activity. EC50 values for a protease inhibitor titration were calculated as the concentration which caused a 50% reduction in FRET or luciferase activity. The two numbers generated for the compound plate, percent cytoxicity and percent activity were used to determine compounds of interest for further analysis.

HCV NS5B = target: T1, HCV NS5B (Hepatitis C virus genotype 1b, UniProt Q9WMX2); assay: Modified HCV NS5B RdRp enzyme assay (preincubation protocol); type: biochemical
T1 construct: The protein was expressed with an 18 amino acid C-terminal truncation to enhance the solubility; made in house; host or cells: E. coli BL21(DE3)
Procedure: HCV NS5B RdRp cloning, expression, and purification. The cDNA encoding the NS5B protein of HCV, genotype 1b, was cloned into the pET21a expression vector. The protein was expressed with an 18 amino acid C-terminal truncation to enhance the solubility. The E. coli competent cell line BL21(DE3) was used for expression of the protein. Cultures were grown at 37° C. for ˜4 hours until the cultures reached an optical density of 2.0 at 600 nm. The cultures were cooled to 20° C. and induced with 1 mM IPTG. Fresh ampicillin was added to a final concentration of 50 μg/ml and the cells were grown overnight at 20° C.
Cell pellets (3 L) were lysed for purification to yield 15-24 mgs of purified NS5B. The lysis buffer consisted of 20 mM Tris-HCl, pH 7.4, 500 mM NaCl, 0.5% triton X-100, 1 mM DTT, 1 mM EDTA, 20% glycerol, 0.5 mg/ml lysozyme, 10 mM MgCl2, 15 ug/ml deoxyribonuclease I, and Complete TM protease inhibitor tablets (Roche). After addition of the lysis buffer, frozen cell pellets were resuspended using a tissue homogenizer. To reduce the viscosity of the sample, aliquots of the lysate were sonicated on ice using a microtip attached to a Branson sonicator. The sonicated lysate was centrifuged at 100,000×g for 1 hr at 4° C. and filtered through a 0.2 μm filter unit (Corning).
The protein was purified using three sequential chromatography steps: Heparin sepharose CL-6B, polyU sepharose 4B, and Hitrap SP sepharose (Pharmacia). The chromatography buffers were identical to the lysis buffer but contained no lysozyme, deoxyribonuclease I, MgCl2 or protease inhibitor and the NaCl concentration of the buffer was adjusted according to the requirements for charging the protein onto the column. Each column was eluted with a NaCl gradient which varied in length from 5-50 column volumes depending on the column type. After the final chromatography step, the resulting purity of the enzyme is >90% based on SDS-PAGE analysis. The enzyme was aliquoted and stored at −80° C.
Standard HCV NS5B RdRp enzyme assay. HCV RdRp genotype 1b assays were run in a final volume of 60 μl in 96 well plates (Costar 3912). The assay buffer is composed of 20 mM Hepes, pH 7.5, 2.5 mM KCl, 2.5 mM MgCl2, 1 mM DTT, 1.6 U RNAse inhibitor (Promega N2515), 0.1 mg/ml BSA (Promega R3961), and 2% glycerol. All compounds were serially diluted (3-fold) in DMSO and diluted further in water such that the final concentration of DMSO in the assay was 2%. HCV RdRp genotype 1b enzyme was used at a final concentration of 28 nM. A polyA template was used at 6 nM, and a biotinylated oligo-dT12 primer was used at 180 nM final concentration. Template was obtained commercially (Amersham 27-4110). Biotinylated primer was prepared by Sigma Genosys. 3H-UTP was used at 0.6 μCi (0.29 μM total UTP). Reactions were initiated by the addition of enzyme, incubated at 30° C. for 60 min, and stopped by adding 25 μl of 50 mM EDTA containing SPA beads (4 μg/μl, Amersham RPNQ 0007). Plates were read on a Packard Top Count NXT after >1 hr incubation at room temperature.
Modified HCV NS5B RdRp enzyme assay. A modified enzyme assay was performed essentially as described for the standard enzyme assay except for the following: The biotinylated oligo dT12 primer was precaptured on streptavidin-coated SPA beads by mixing primer and beads in assay buffer and incubating at room temperature for one hour. Unbound primer was removed after centrifugation. The primer-bound beads were resuspended in 20 mM Hepes buffer, pH 7.5 and used in the assay at final concentrations of 20 nM primer and 0.67 μg/μl beads. Order of addition in the assay: enzyme (14 nM) was added to diluted compound followed by the addition of a mixture of template (0.2 nM), 3H-UTP (0.6 μCi, 0.29 μM), and primer-bound beads, to initiate the reaction; concentrations given are final. Reactions were allowed to proceed for 4 hours at 30° C.
IC50 values for compounds were determined using seven different [I]. […]

[1] = determined using the FRET assay, read-out: EC50
[2] = determined using the preincubation protocol, read-out: IC50

T1 sequence (Q9WMX2 2420-2992): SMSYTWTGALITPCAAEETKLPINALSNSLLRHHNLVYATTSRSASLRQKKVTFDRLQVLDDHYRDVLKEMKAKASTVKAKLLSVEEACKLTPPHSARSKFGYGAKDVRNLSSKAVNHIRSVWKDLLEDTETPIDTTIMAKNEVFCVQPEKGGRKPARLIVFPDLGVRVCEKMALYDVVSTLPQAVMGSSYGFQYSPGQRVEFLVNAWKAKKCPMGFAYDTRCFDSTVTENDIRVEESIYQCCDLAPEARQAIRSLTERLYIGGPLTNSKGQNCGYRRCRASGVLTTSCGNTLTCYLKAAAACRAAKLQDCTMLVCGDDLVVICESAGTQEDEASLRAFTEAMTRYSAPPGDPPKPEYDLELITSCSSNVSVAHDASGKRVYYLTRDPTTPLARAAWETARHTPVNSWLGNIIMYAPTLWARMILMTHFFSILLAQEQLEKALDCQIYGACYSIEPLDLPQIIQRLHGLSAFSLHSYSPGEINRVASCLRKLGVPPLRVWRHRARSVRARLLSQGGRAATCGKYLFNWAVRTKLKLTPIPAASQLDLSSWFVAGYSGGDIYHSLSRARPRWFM

Row | Structure (SMILES) | EC50 (HCV replicon cells; [1]) | IC50 (HCV NS5B; [2]) | EC50 (HCV replicon cells) | IC50 (HCV NS5B)
1 | COc1ccc2c(c1)C1CC1(CO)Cn1c-2c(C2CCCCC2)c2ccc(C(=O)NS(=O)(=O)N(C)C)cc21 (centres unmarked) | 1 to 500 nM | 1 to 500 nM | – | –
2 | COc1ccc2c(c1)C1CC1(COC(=O)N1CCOCC1)Cn1c-2c(C2CCCCC2)c2ccc(C(=O)NS(=O)(=O)N(C)C)cc21 (centres unmarked) | 1 to 500 nM | 1 to 500 nM | – | –
3 | CCN(CC12CC1c1cc(OC)ccc1-c1c(C3CCCCC3)c3ccc(C(=O)NS(=O)(=O)N(C)C)cc3n1C2)C(C)=O (centres unmarked) | 1 to 500 nM | 1 to 500 nM | – | –
4 | COc1ccc2c(c1)C1CC1(CN1CCOCC1)Cn1c-2c(C2CCCCC2)c2ccc(C(=O)NS(=O)(=O)N(C)C)cc21 (centres unmarked) | 1 to 500 nM | 1 to 500 nM | – | –
5 | COc1ccc2c(c1)C1CC1(CC(=O)N1C3CCC1CN(C)C3)Cn1c-2c(C2CCCCC2)c2ccc(C(=O)NS(=O)(=O)N(C)C)cc21 (centres unmarked) | – | – | 1 to 500 nM | > 120 nM
6 | COc1ccc2c(c1)C1CC1(CC(=O)N1C[C@@H](C)O[C@H](C)C1)Cn1c-2c(C2CCCCC2)c2ccc(C(=O)NS(=O)(=O)N(C)C)cc21 (some centres unmarked) | 1 to 500 nM | 1 to 500 nM | – | –
7 | COc1ccc2c(c1)C1CC1(CC(=O)N1CCOCC1)Cn1c-2c(C2CCCCC2)c2ccc(C(=O)NS(=O)(=O)N(C)C)cc21 (centres unmarked) | 1 to 500 nM | 1 to 500 nM | – | –
8 | COC(=O)CC12CC1c1cc(OC)ccc1-c1c(C3CCCCC3)c3ccc(C(=O)NS(=O)(=O)N(C)C)cc3n1C2 (centres unmarked) | > 120 nM | 1 to 500 nM | – | –
9 | COc1ccc2c(c1)C1CC1(CC(=O)O)Cn1c-2c(C2CCCCC2)c2ccc(C(=O)NS(=O)(=O)N(C)C)cc21 (centres unmarked) | 500 to 1000 nM | 1 to 500 nM | – | –
10 | COC(=O)CC12CC1c1cc(OC)ccc1-c1c(C3CCCCC3)c3ccc(C(=O)O)cc3n1C2 (centres unmarked) | 1 to 500 nM | 1 to 500 nM | – | –
